Here are results for one molecule from patent US20120172306A1, “Use of HASF as a Protective Agent Against Ischemic Tissue Damage” (Duke University, priority 2009, published 2012).

The structures appear in SMILES notation.

One experiment concerns adult rat cardiomyocytes. Description: Caspase-Glo 9 and 3/7 assays of H2O2 induced apoptosis. Format: cell-based. Conditions: 3 μM inhibitor 30 min, 100 nM HASF 30 min, 200 μM H2O2 3 hours. Here is the method:
FIGS. 2B and 2C are bar graphs showing relative caspase activity. Adult rat cardiomyocytes were freshly isolated and treated ±10 nM of HASF for 30 min, and then challenged with 100 μM of H2O2 for various time points. H2O2 induced apoptosis in cardiomyocytes was evidenced by the dynamic increase in the activities of the initiator Caspase 9 and effector Caspase […] at 5 h, 7 h and 9 h respectively. Y axis represent the relative amount of luminescence indicating the relative amount of active Caspase activities. ** P<0.01 and *** P<0.001. Data are presented as means±standard deviation of triplicates.
FIG. 3C is a bar graph showing fold-change in caspase activity. Serum-starved adult rat cardiomyocytes were treated with 3 μM PKC inhibitors or vehicle DMSO for 30 minutes, then 100 nM HASF recombinant protein was added for 30 minutes followed by treatment with 200 μM H2O2 for 3 hours. Apoptosis was determined by detection of Caspase-9 activity using a homogeneous luminescent assay. All samples were measured in triplicates. *P<0.05 vs. non-HASF treated cells.
FIG. 4C is a bar graph showing relative caspase activity in adult cardiomyocytes. Apoptosis as determined by detection of Caspase-9 activity on adult rat cardiomyocytes pre-treated with 178 μM PKC translocation inhibitor peptide for 10 minutes and then with 100 nM of HASF for 30 minutes. Thereafter, cells were challenged with 200 μM H2O2 for 3 hours. All samples were measured in triplicates. *P <0.05 vs. non-HASF treated cells and the experiment was repeated multiple times.
Adult rat ventricular cardiomyocytes were isolated from 6 weeks old female Sprague-Dawley rat (Harlan World Headquarters, Indianapolis, Ill., USA) hearts by enzymatic digestion and were seeded in (6-well) plates or Delta T culture dishes (Bioptechs, Inc., Pa.) pre-coated with 1 μg/cm2 of laminin (Sigma) at 5×10^4/well and cultured overnight in serum-free M199 medium (Sigma), supplemented with 2 mM of L-carnitine, 5 mM of creatine, 5 mM of taurine, 0.2% of albumin, 100 U/ml of penicillin and 100 μg/ml of streptomycin. […]

In experiment [1] the test system is PKC, Raf, ERK 1/2, PDK1 phosphorylation in adult rat cardiomyocytes. Put plainly: Western blot analysis of signaling protein phosphorylation (PKC/ERK pathway). The experiment is classed as cell-based. Conditions: 3 μM inhibitor 30 min, then 100 nM HASF 5-10 min. As for the experimental part:
FIG. 3A is a photograph of an electrophoretic gel. HASF activates the PKC pathway. A. Western blots analysis for various signaling proteins. Serum-starved adult rat cardiomyocytes were stimulated with 100 nM HASF recombinant protein for various time courses. Cell lysate was collected and the proteins were resolved by SDS-PAGE. Insulin from bovine pancreas was used as a positive control. min: minutes of treatment.
FIG. 3B is a photograph of an immunoblot. Serum-starved adult rat cardiomyocytes were pre-treated with 3 μM PKC inhibitors BIM, Gö6976, or Gö6983 for 30 minutes, then stimulated with 100 nM HASF recombinant protein for 5-10 min and cells were harvested. Total cell lysates were used to analyze the levels of ERK1/2 phosphorylation by western blot analysis.
FIG. 4A is a photograph of an immunoblot. Western blot analysis for PKC E and PKC delta phosphorylation on total cell lysates from serum-starved adult rat cardiomyocytes stimulated with 100 nM HASF recombinant protein at 5 and 30 min. HASF b1 and b2 represent different batches of recombinant protein. PMA was used as positive control.
FIG. 4B is a photograph of an immunoblot. Western blot analysis for ERK1/2 phosphorylation on total cell lysates from adult rat cardiomyocytes pre-treated with 10 pM PKC epsilon translocation inhibitor peptide for 20 min, then 100 nM HASF recombinant protein was added for 5 min or 10 min.
FIGS. 8A-B are photographs of immunoblots. Western blot analysis for PKC a/b and PKC theta phosphorylation on total cell lysates from serum-starved adult rat cardiomyocytes stimulated with 100 nM HASF recombinant protein for the indicated times. HASF batch 1 and 2 represent different batches of recombinant protein. PMA was used as positive control.
Rabbit polyclonal antibodies for phospho-pan PKC, phospho-ERK1/2, phospho-raf, phosphor-PDK1, total Akt were obtained from Cell Signaling Tech. Rabbit polyclonal antibody for phospho-PKC epsilon, phospho-Bad, and GAPDH was obtained from Abeam. HRP-conjugated goat anti-rabbit secondary antibody was obtained from Cell Signaling Tech.
For orientation: Immunoblotting shows a protein as a band on a membrane.

In the case of `CN(C)CCCn1cc(C2=C(c3c[nH]c4ccccc34)C(=O)NC2=O)c2ccccc21.Cl` [BIM, Bisindolylmalemide Hydrochloride, reference compound], in the experiment on adult rat cardiomyocytes, the “effect of PKC inhibitor on protective effects of HASF (Caspase-9 activity)” value was “abolished the protective effects”. The “effect of PKC inhibitor on HASF-mediated ERK1/2 phosphorylation” value in experiment [1] was “abolished”.
